Reference: US12606544B2, “JAK1 selective kinase inhibitor” (DIZAL (JIANGSU) PHARMACEUTICAL CO., LTD., priority 2019, dated 2026)
Where two headings read alike, the source gives them in different places.

Key:
phosphorylation of STAT6 = assay: Cellular p-STAT6 assay, IL-13 stimulated THP-1 cells, flow cytometry; type: cell-based; details: IL-13 10 ng/ml, read-out: pSTAT6 IC50
Summary of the method: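 THP-1 cells (2×10^5/well, RPMI1640 + 10% FBS) preincubated 60 min at room temperature with compound (1 μM to 0.3 nM), then stimulated 30 min with IL-13 at 10 ng/ml. Fixed, methanol-permeabilized cells stained with PE anti-pSTAT6 and read by flow cytometry; IC50 from dose-response curves.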

[1] = Metabolic stability in rat hepatocytes; type: in vitro ADME; details: 1 μM compound, male rat hepatocytes
Experimental: (§1) Rat hepatocytes in male gender and human liver microsome were obtained from commercial vendors (e.g., BioreclamationIVT) and stored at −150° C. prior to use.
For metabolic stability assay with rat heptatocytes, vials of cryopreserved hepatocytes or microsome were removed from storage, ensured that vials remain at cryogenic temperatures. 1 μM of each test compound (in Acetonitrile; 0.01% DMSO) was incubated with 250 μL of hepatocyte cells (1×10^6 cells/ml) in a 96 deep well plate. […] 40 μL of supernatant was diluted to 200 μL with pure water and analyzed using LC-MS/MS.
In vitro hepatocyte clearance was estimated based on determination of elimination half-life (T1/2) of compounds disappearance from their initial concentrations. Peak area ratios of each compound (test or control) to IS was calculated. Ln (% Control) versus Incubation Time (min) curve was plotted, and the slope of a linear fitting line was calculated. Drug elimination rate constant k (min−1), T1/2 (min), and in vitro intrinsic clearance CLint (μL/min/E6) was calculated according to the following equations: k=−slope T1/2=0.693/k CLint=k/Chep Where Chep (cells×μL^−1) is the cell concentration in the incubation system.

JAK2 = target: T1, JAK2 (Homo sapiens, UniProt O60674); assay: Lance Ultra Kinase Assay, recombinant JAK2; type: biochemical; details: 5 mM ATP
T1 construct: purchased Carna Biosciences
T1 sequence (O60674 whole entry): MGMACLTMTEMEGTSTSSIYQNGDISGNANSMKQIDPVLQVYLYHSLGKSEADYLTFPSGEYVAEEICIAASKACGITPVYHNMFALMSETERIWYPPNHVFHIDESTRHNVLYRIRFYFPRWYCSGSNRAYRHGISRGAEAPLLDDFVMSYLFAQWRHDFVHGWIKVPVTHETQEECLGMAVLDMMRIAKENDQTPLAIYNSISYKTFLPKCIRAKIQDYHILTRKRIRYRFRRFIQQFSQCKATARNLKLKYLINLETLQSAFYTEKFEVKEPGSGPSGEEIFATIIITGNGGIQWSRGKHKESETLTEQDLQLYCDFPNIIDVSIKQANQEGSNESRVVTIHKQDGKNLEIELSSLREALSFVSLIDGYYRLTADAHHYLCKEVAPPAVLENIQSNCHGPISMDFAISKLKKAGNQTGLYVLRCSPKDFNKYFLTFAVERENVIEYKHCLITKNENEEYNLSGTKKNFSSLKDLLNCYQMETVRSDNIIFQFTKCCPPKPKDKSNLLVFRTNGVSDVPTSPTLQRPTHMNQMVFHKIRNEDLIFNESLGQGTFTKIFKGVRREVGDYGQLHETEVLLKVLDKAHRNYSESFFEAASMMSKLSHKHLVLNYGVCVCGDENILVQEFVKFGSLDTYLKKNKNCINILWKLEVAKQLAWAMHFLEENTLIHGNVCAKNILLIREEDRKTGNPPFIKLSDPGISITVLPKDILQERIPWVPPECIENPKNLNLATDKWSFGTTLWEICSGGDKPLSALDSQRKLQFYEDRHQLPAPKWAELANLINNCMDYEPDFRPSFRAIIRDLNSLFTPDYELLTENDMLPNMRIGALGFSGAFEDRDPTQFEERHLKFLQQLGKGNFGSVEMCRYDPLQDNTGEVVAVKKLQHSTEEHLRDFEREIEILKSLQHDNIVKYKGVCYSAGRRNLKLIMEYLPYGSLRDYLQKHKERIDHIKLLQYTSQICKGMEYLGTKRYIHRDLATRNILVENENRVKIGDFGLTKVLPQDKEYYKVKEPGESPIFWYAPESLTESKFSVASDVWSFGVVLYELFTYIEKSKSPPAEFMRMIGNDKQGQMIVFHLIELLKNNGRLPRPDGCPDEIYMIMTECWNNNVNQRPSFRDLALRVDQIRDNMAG
Summary of the method: (§2)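 Each recombinant kinase preincubated with or without compound 15 min at room temperature, then reaction started with 5 mM ATP and substrate peptide for 60 min. Stopped with EDTA-containing detection mix; TR-FRET read at ex 320 nm, 665/615 nm emission ratio taken as kinase activity.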

JAK1 = target: T2, JAK1 (Homo sapiens, UniProt P23458); assay: Lance Ultra Kinase Assay, recombinant JAK1; type: biochemical; details: 5 mM ATP
T2 construct: purchased Carna Biosciences
T2 sequence (P23458 whole entry): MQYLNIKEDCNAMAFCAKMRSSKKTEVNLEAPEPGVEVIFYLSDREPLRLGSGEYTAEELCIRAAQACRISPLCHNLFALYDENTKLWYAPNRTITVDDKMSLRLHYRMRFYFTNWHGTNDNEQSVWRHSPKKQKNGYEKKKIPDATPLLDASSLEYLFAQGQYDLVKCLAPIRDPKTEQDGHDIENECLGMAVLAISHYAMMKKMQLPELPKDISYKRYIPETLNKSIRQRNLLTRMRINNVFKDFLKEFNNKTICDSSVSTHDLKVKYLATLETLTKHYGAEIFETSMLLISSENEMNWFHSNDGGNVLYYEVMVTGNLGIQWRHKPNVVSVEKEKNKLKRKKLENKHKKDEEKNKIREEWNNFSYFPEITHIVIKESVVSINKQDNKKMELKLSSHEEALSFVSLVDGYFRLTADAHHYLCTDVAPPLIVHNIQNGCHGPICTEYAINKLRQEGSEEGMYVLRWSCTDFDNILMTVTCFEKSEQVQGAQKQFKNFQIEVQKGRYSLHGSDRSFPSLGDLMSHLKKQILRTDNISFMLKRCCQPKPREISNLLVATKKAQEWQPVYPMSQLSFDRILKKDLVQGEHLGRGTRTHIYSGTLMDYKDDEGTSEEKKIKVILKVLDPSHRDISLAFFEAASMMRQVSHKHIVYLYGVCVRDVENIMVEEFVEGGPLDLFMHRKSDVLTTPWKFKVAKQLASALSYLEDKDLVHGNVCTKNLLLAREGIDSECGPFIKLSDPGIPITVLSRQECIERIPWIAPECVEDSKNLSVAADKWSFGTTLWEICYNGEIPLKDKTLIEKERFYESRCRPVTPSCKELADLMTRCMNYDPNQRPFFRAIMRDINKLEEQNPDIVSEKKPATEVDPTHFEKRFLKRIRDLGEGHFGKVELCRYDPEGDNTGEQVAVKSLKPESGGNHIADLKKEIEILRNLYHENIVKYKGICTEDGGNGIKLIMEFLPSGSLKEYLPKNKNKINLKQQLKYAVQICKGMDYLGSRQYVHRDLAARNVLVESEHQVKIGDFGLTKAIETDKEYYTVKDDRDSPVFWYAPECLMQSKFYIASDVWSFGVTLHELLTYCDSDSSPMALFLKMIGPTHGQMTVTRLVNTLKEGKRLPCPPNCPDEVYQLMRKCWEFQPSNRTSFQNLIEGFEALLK
Summary of the method: as §2

JAK3 = target: T3, JAK3 (Homo sapiens, UniProt P52333); assay: Lance Ultra Kinase Assay, recombinant JAK3; type: biochemical; details: 5 mM ATP
T3 construct: purchased Carna Biosciences
T3 sequence (P52333 1-1124): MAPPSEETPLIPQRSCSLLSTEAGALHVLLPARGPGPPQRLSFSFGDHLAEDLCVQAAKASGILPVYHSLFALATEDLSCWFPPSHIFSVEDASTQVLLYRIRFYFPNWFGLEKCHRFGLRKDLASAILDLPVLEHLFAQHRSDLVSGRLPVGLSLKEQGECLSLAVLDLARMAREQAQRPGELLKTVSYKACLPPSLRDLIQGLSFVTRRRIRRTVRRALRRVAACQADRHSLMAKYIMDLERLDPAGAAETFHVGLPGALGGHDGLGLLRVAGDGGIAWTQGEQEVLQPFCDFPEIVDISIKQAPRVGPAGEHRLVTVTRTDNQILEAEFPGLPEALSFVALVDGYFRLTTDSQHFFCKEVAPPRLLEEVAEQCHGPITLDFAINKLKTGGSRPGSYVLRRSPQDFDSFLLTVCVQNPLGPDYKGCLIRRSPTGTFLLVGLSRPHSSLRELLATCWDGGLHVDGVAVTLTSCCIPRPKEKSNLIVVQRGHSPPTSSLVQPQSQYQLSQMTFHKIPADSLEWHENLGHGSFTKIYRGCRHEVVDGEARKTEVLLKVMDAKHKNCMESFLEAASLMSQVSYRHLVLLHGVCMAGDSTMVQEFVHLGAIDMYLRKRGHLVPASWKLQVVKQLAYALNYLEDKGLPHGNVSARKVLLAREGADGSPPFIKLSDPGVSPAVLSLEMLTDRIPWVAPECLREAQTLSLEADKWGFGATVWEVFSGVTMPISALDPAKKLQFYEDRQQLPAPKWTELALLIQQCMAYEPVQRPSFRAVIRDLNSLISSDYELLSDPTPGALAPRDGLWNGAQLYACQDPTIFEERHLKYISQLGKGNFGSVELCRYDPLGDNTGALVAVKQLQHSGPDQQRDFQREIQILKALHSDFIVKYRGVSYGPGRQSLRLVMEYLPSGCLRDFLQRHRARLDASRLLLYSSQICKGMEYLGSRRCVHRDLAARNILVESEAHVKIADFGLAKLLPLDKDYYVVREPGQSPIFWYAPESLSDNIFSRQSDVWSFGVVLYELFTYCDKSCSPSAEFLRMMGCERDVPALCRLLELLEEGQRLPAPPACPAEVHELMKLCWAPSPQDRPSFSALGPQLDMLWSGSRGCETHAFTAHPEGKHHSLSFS
Summary of the method: as §2

TYK2 = target: T4, TYK2 (Homo sapiens, UniProt P29597); assay: Lance Ultra Kinase Assay, recombinant TYK2; type: biochemical; details: 5 mM ATP
T4 construct: purchased Carna Biosciences
T4 sequence (P29597 whole entry): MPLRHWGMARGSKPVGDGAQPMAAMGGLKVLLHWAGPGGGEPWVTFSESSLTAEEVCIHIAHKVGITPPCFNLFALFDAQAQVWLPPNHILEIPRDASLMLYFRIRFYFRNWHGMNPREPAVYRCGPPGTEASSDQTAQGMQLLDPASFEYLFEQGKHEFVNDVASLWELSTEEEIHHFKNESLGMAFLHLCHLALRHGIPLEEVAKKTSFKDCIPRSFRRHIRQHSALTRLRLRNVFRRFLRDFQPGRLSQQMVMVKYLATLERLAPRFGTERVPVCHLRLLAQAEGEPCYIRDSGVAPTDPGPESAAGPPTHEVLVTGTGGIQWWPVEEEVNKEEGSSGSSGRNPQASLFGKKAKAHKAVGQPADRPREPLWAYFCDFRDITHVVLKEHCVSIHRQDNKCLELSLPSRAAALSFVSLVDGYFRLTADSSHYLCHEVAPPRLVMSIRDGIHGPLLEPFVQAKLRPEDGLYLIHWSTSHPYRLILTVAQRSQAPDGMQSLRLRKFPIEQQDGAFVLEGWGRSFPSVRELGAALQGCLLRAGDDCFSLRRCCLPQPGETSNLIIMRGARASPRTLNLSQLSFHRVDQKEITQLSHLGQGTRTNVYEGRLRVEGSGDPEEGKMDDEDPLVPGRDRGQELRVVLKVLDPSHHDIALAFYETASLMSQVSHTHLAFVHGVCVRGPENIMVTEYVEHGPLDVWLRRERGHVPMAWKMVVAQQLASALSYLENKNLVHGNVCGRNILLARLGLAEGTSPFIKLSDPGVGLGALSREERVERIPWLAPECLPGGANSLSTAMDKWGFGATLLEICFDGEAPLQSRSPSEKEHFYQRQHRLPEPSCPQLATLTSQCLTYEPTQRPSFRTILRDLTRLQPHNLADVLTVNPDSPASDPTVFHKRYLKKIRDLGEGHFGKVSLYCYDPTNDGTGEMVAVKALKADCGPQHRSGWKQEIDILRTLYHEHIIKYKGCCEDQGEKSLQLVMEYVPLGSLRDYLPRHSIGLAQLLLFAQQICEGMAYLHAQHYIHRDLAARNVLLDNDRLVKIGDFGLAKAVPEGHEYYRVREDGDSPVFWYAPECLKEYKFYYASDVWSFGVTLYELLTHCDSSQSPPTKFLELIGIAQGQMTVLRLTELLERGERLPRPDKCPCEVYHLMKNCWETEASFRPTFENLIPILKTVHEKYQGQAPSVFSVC
Summary of the method: as §2

[2] = Metabolic stability in human liver microsome; type: in vitro ADME; details: 1 mg/mL microsomes, NADPH; for microsomal CLint at 1 μM: human, pooled human liver microsomes, pH 7.4, 1 μM compound
Experimental: as §1
For metabolic stability assay with human liver microsome, 1 μM of each test compound was incubated with 1 mg/mL of microsomes (Pooled HLM with 20 mg/ml protein cone) at 37° C. in 250 μL of buffer (100 mM phosphate buffer, pH-7.4) containing 1 mM NADPH solution. […] was quenched with 5 volumes chilled acetonitrile at different time points 0, 0.5, 5, 10, 15, 20 and 30 min in a fresh 96 well plate. The quench plate was centrifuged at 4000 rpm for 15 min. 40 μL of supernatant was diluted to 200 μL with pure water and analyzed using LC-MS/MS. […]

[3] = Homo sapiens, THP-1, THP-1 cells

SMILES | IC50 (phosphorylation of STAT6; [3]) [µM] | Rat Hepatocyte CLint [1] [μL/min/10^6 cells] | IC50 (JAK2) [µM] | IC50 (JAK1) [µM] | IC50 (JAK3) [µM] | IC50 (TYK2) [µM] | microsomal CLint at 1 μM [2] [µL/min/mg] | IC50 (phosphorylation of STAT6; THP-1 cells) [µM] | Human liver microsome CLint ([2]; 1 μM compound) [µL/min/mg]
COC[C@H](C(=O)Nc1cccc2c(-c3nc(Nc4cnn(C5CCOC5)c4)ncc3F)c[nH]c12)N1CCN(C)CC1 (single isomer, unassigned; isomer 1) [Example 30] | 0.0103 | 4.4 | 0.095 | 0.00015 | > 10 | 1.18 | 13.5 |  | 
CCOC(=O)c1ccc(Nc2ncc(F)c(-c3c[nH]c4c(NC(=O)[C@@H](COC)N5CCN(C)CC5)cccc34)n2)cn1 [Example 36, ethyl (R)-5-((5-fluoro-4-(7-(3-methoxy-2-(4-methylpiperazin-1-yl)propanamido)-1H-indol-3-yl)pyrimidin-2-yl)amino)picolinate] | 0.0115 | >300 | 0.491 | 0.00029 | > 10 | 4.61 | > 300 |  | 
COC[C@H](C(=O)Nc1cccc2c(-c3nc(Nc4cnn(-c5cccc(CO)c5)c4)ncc3F)c[nH]c12)N1CCN(C)CC1 [Example 67, (R)-N-(3-(5-fluoro-2-((1-(3-(hydroxymethyl)phenyl)-1H-pyrazol-4-yl)amino)pyrimidin-4-yl)-1H-indol-7-yl)-3-methoxy-2-(4-methylpiperazin-1-yl)propanamide] | 0.0206 | 153.6 | 0.035 | 0.00018 | 6.77 | 0.609 | 19.5 |  | 
COC[C@H](C(=O)Nc1cccc2c(-c3nc(Nc4ccc(NC(C)=O)nc4)ncc3F)c[nH]c12)N1CCN(C)CC1 [Example 48, (R)-N-(3-(2-((6-acetamidopyridin-3-yl)amino)-5-fluoropyrimidin-4-yl)-1H-indol-7-yl)-3-methoxy-2-(4-methylpiperazin-1-yl)propanamide] | 0.014 | 1.6 | 0.379 | 0.00027 | > 10 | 1.7 | 69.1 |  | 
COC[C@H](C(=O)Nc1cccc2c(-c3nc(Nc4ccc(CO)nc4)ncc3F)c[nH]c12)N1CCN(C)CC1 [Example 1, (R)-N-(3-(5-fluoro-2-((6-(hydroxymethyl)pyridin-3-yl)amino)pyrimidin-4-yl)-1H-indol-7-yl)-3-methoxy-2-(4-methylpiperazin-1-yl)propanamide] | 0.004 | 68.8 | 0.085 | 0.00013 | > 10 | 0.644 | 4.9 |  | 
COC[C@H](C(=O)Nc1cccc2c(-c3nc(Nc4ccc(OCCO)nc4)ncc3F)c[nH]c12)N1CCN(C)CC1 [Example 16, (R)-N-(3-(5-fluoro-2-((6-(2-hydroxyethoxy)pyridin-3-yl)amino)pyrimidin-4-yl)-1H-indol-7-yl)-3-methoxy-2-(4-methylpiperazin-1-yl)propanamide] | 0.0074 | 42.1 | 0.138 | 0.00036 | > 10 | 2 | 3 |  | 
COC[C@H](C(=O)Nc1cccc2c(-c3nc(Nc4cnc(CCO)c(OC)c4)ncc3F)c[nH]c12)N1CCN(C)CC1 [Example 66, (R)-N-(3-(5-fluoro-2-((6-(2-hydroxyethyl)-5-methoxypyridin-3-yl)amino)pyrimidin-4-yl)-1H-indol-7-yl)-3-methoxy-2-(4-methylpiperazin-1-yl)propanamide] | 0.0203 | 12.7 | 0.012 | 0.00035 | > 10 | 0.545 | 25 |  | 
COC[C@H](C(=O)Nc1cccc2c(-c3nc(Nc4ccc5cn[nH]c5c4)ncc3F)c[nH]c12)N1CCN(C)CC1 [Example 13, (R)-N-(3-(2-((1H-indazol-6-yl)amino)-5-fluoropyrimidin-4-yl)-1H-indol-7-yl)-3-methoxy-2-(4-methylpiperazin-1-yl)propanamide] | 0.0072 | 5.5 | 0.088 | 0.00033 | 8.95 | 1.39 | 83.1 |  | 
COC[C@H](C(=O)Nc1cccc2c(-c3nc(Nc4ccc(CCO)nc4)ncc3F)c[nH]c12)N1CCN(C)CC1 [Example 60, (R)-N-(3-(5-fluoro-2-((6-(2-hydroxyethyl)pyridin-3-yl)amino)pyrimidin-4-yl)-1H-indol-7-yl)-3-methoxy-2-(4-methylpiperazin-1-yl)propanamide] | 0.0176 | 4.6 | 0.158 | 0.00025 | > 10 | 1.34 | 7 |  | 
COC[C@H](C(=O)Nc1cccc2c(-c3nc(Nc4cnn(C5CCOC5)c4)ncc3F)c[nH]c12)N1CCN(C)CC1 (single isomer, unassigned; isomer 2) [Example 33] |  | 6.8 | 0.11 | 0.00014 | > 10 | 2.17 |  | 0.0111 | 11.1
COC[C@H](C(=O)Nc1cccc2c(-c3nc(Nc4ccc5nc[nH]c5c4)ncc3F)c[nH]c12)N1CCN(C)CC1 [Example 45, (R)-N-(3-(2-((1H-benzo[d]imidazol-6-yl)amino)-5-fluoropyrimidin-4-yl)-1H-indol-7-yl)-3-methoxy-2-(4-methylpiperazin-1-yl)propanamide] | 0.0134 | 2.7 | 0.131 | 0.00014 | > 10 | 1.29 | 45.2 |  | 
COC[C@H](C(=O)Nc1cccc2c(-c3nc(Nc4cnn(-c5ccccc5CO)c4)ncc3F)c[nH]c12)N1CCN(C)CC1 [Example 53, (R)-N-(3-(5-fluoro-2-((1-(2-(hydroxymethyl)phenyl)-1H-pyrazol-4-yl)amino)pyrimidin-4-yl)-1H-indol-7-yl)-3-methoxy-2-(4-methylpiperazin-1-yl)propanamide] | 0.015 | 17.4 | 0.18 | 0.00022 | > 10 | 1.66 | 27.9 |  | 
